Measurements: patent US7723289B2, “PIF tetrapeptides” (BioIncept, LLC, priority 2003, dated 2010)
Where “and” joins values, the source holds several entries; their conditions need not be identical. Identical values can stand only once. Like-named read-outs stand apart in the source and are kept apart here.

What was measured:
PBMC [1] = test: Cytokine release (ELISA) and intracellular cytokine staining in stimulated PBMC; type: cell-based, human
Procedure: FIG. 2. sPIF-1(15) (SEQ ID NO:13) increases the percentage of PBMC that contain TH2 type cytokines (IL10, IL 4), while scrPIF-1(15) (SEQ ID NO: 5) has a TH1 bias (INFgamma). Isolated PBMC were stimulated by PHA (1 ug/ml) and cultured 2-4 days with sPIF-1(15) (SEQ ID NO:13) or scrPIF-1(15) (SEQ ID NO:5). 30 nM. PBMC cytokines content was determined by specific staining using flow cytometry. Effect of PIF-1 on cellular content of cytokines of PBMC was examined up to 96 hours and a time dependent pattern emerged, not replicated by scrambled or irrelevant peptide. Measurements were carried out in two separate stages. At the cellular induction/synthetic level, lymphocytes were cultured in the presence of PHA for various periods with or without PIF-1 then processed for intracellular immunostaining (activation by PMA plus ionomycin in the presence of monenisn and berfeldin, followed by permeabilization and immunostaining) for the detection of nascent cytokines.
Human PBMC were isolated and cultured for 2-4 days in AIM-V medium containing 0 to 200 nM of sPIF-115 (SEQ ID NO:13) or scrPIF-115 (SEQ ID NO:5). The following proliferation-activating agents were used: anti-CD3 antibody (10 μg/ml solution) bound on the plate wells in the presence or absence of IL-2 at 10 μg/ml; phytohemmaglutinin (PHA) at 4 μg/ml. The effects of sPIF-115 (SEQ ID NO:13) or scrPIF-115 (SEQ ID NO:5) peptides were also determined by the mixed lymphocyte reaction (MLR) after 3 days in heterologous cultures of PBMC with cells previously treated with mitomycin C (100 μg/ml for 4 h). Cell proliferation was determined by tritiated thymidine incorporation (16 h) of 72-h culture. Cytokine release (IL-4, IL-10, IFN-γ and TNF-α) into culture supernatants was determined at 72 h of culture by ELISA (R&D System).

CD3 = CD3 expression in PBMC (flow cytometry, MAbCD3-PE); type: cell-based; conditions: PBMC exposed 3 days, 2-200 nM
Procedure: Fluorescent PIF peptides bind to immune cell membranes following activation. […] CD69 is expressed during activation of lymphocytes and monocytes, and is a marker of NK cells activation. CD25 is the receptor for IL-2, and a known activation marker as well. […] The expression of CD3 in PBMC was examined following exposure for 3 days to sPIF-1(15) (SEQ ID NO:13) (2-200 nM) using 20 ul MAbCD3-PE (BD).

PBMC [2] = conditions: PHA +
Procedure: sPIF-115 (SEQ ID NO:13) effect was tested on a patient with over 14 miscarriages and no live birth. Their immune cells were examined in the non-pregnant state, by exposure to sPIF-115 (SEQ ID NO:13) using PBMC preparations. Induction of PIF receptor expression, and binding to lymphocytes were used to characterize the treated cells.

[3] = tested on: donor lymphocytes and platelets; type: cell-based, human
Source text: The PIF assay, as disclosed in U.S. Pat. No. 5,646,003 to Barnea et al., entitled “Preimplantation Factor” issued Jul. 9, 1997, and in U.S. Pat. No. 5,981,198 to Barnea et al., entitled “Preimplantation Factor” granted Nov. 9, 1999, the disclosures of which are incorporated herein by reference in their entirety, may be used to measure the response of the immune system to pregnancy specific preimplantation factors. […] Lymphocyte-platelet rosettes result from the interaction of the T cell surface protein CD2 with its ligand CD58 expressed on the platelet membrane. Anti-CD2, by binding to the CD2 antigen on the T cells, inhibits their interaction with platelets.
Human PBMC were isolated by the Ficoll method. FITC-labeled nPIF-115 (SEQ ID NO: 1) and (FITC)-labeled scrPIF-1 (SEQ ID NO:5) and match-size irrelevant peptide (FITC)-labeled negative controls negPIF-1(15) (SEQ ID NO:11), were dissolved in PBS at concentrations ranging from 0.75 to 48.19 μM, and were incubated with 500,000 lymphocytes for 1 h at room temperature. The cells were washed 6 times with PBS and resuspended in 500 μl of the same buffer. T-cells and monocytes identification was performed in independent experiments by incubation with anti-CD3 and anti-CD14 antibody-phycoerithryn (PE) labeled. nPIF-115 (SEQ ID NO: 1) binding to PBMC was determined by flow cytometry. In addition, rosettes formed by T cell-platelets were detected by flow cytometry using anti-CD3 antibody-PE and anti-CD41a antibody-FITC (all antibodies were from Pharmingen Inc.).

mice = test: Subcutaneous osmotic mini-pump administration in mated mice, implantation sites; type: in vivo
Procedure: Preliminary in vivo assessment of PIF-1 antagonist by using PIF1scr/amide was performed. […] Following the protocol below: (Dr Hoberman, Argus, Inc) PIF-1scr/amide was introduced two days after estrus to mice through an osmotic mini-pump (Alzet Model 2001; 1 ul/hr for 7 days) containing either 0.9% saline or 150 ug or 800 ug PIF-1scr/amide/day release in saline. The pumps were inserted subcutaneously under ketamine/xylazine anesthesia. Female mice were placed with male mice on the third day afternoon of the expected estrus. Four different groups 5 each were studied, low and high dose PIF-1scr/amide, saline control, and one group with PIF-1. Mating was confirmed by the presence of sperm in the vagina or a copulatory plug the next morning. Pregnancy (or lack thereof) was determined by sacrificing on day 10 after breeding and the uterine horns were examined for implantation sites by using Chicago Blue solution.
The group treated with PIF-1 160 ug/kg/day appeared to have increased number of implantation sites and this was associated with a higher rate of fetal survival compared to vehicle treated controls.

[4] = 160 ug/kg/day, compared to vehicle treated controls

Procedure for 46 different kinases: The effect of PIF-1 on kinases related to metabolic function was examined. The methodology for testing PIF activity on MEK1 kinase is described below, but it is applicable for all kinases tested: 50 nM Tris pH, 0.1 mM EGTA 0.10% b-mercaptoethanol 1 mg/mg BSA PIF-1 15 was dissolved in deionised water at 5 nM-5 uM range of concentrations. […] (SEQ ID NO: 23), 10 mM Mg Acetate and [gamma-33P-ATP] 500 cpm/pmol. Reaction initiated with addition of MgATP. After 40 minutes incubation at room temperature, reaction stopped by the addition of 5 ul of a 3% phosphoric acid solution. 10 ul of the reaction is spotted onto a P30 filtermat and washed three times for 5 min in 75 mM phosphoric acid and once in methanol prior to drying and scintillation counting.
The effects of PIF on 46 different kinases (listed below in Table 5) related to metabolic function were tested.

## MVRIKPGSANKPSDD [sPIF-1(15)]
PBMC [1]; PHA 1 ug/ml, 2-4 days, 30 nM, flow cytometry
  percentage of PBMC that contain TH2 type cytokines (IL10, IL 4): increases
PBMC [1]; one day after IL-10 increase
  IFN-γ decrease: 30%
PBMC [1]; starting at day 2, peaking at days 3-4
  increase in number of IL-10 secreting cells: 50-60%
PBMC [1]; stimulated PBMC
  increase of TH2/TH1 cytokine ratio in PBMC: more than five-fold
PBMC [1]; stimulated PBMC, 72 h, ELISA
  IFN-γ release in culture supernatants: significantly decreased
  IL-4 release: does not have a significant effect
  IL-10 release in culture supernatants: significantly increased
  TNF-α release: does not have a significant effect
CD3
  increase in CD3 receptor expression: 215-420%
PBMC [2]; Control specimen
  (PIF+/CD4+)/CD4+: 22.1
  (PIF+/CD4+)/CD4+ difference in parentheses: 0%
  (PIF+/CD8+)/CD8+: 24.5
  (PIF+/CD19+)/CD19+: 46.2
PBMC [2]; Patient specimen
  (PIF+/CD4+)/CD4+: 16.2
  (PIF+/CD8+)/CD8+: 16.3
  (PIF+/CD19+)/CD19+: 48.2
PBMC [2]; Patient vs control
  (PIF+/CD4+)/CD4+ difference in parentheses: −27%
  (PIF+/CD8+)/CD8+ difference in parentheses: −33%
46 different kinases
  interaction with kinases related to metabolic function: does not interact with any of kinases
[3]
  Increase in Rosette Formation: >370% and >288% and >208%
  increase in the number of rosettes in the presence of the anti-CD2 antibody: four-fold increase
mice; [4]
  number of implantation sites: increased
  rate of fetal survival: higher rate
mice; all tested groups
  effect on maternal body weights: no effect
mice; early pregnancy
  effect on mouse fetuses number: no significant effect
mice; pregnant mice
  toxic effects following administration in early pregnancy: no toxic effects
